Reference: US20250032527A1, “MEDICAL USE OF N4-HYDROXY CITICOLINE COMPOUNDS” (IMMUNIC AG, priority 2021, published 2025)

Experiments:
SARS-COV-2 = test: microbe, parasite or virus in culture; format: cell-based; conditions: Severe acute respiratory syndrome coronavirus 2
SARS-COV-2 d6-YFP = test: Combinatorial drug assessment by viral replication inhibition assay (CompuSyn); format: cell-based
RSV A2 = test: RSV virus titers by endpoint titration (CCID50), mono and combination; format: cell-based; conditions: for RSV Virus Titers: MA-104 cells, virus control 4.0
HRV-14 = HRV-14 virus titers by endpoint titration (CCID50), mono and combination; format: cell-based; conditions: for HRV-14 Virus Titers: Hela cells, virus control 6.7
physchem [1] = conditions: pH 7.4, aqueous buffer, kinetic from dmso stock
physchem [2] = conditions: fassgf or other biorelevant, kinetic from dmso stock
physchem [3] = conditions: simulated gastric fluid
physchem [4] = conditions: pH 7.4
in vitro [5] = conditions: human
in vitro [6] = conditions: human, HeLa cells
in vitro [7] = conditions: dog, MDCK cells
in vitro [8] = conditions: African green monkey, MA-104 cells
[9] = A-B permeability (Caco-2, pH 6.5/7.4); conditions: human, A-B, Caco-2, pH 6.5/7.4, test conc. 1.0E−05M
Caco-2 = test: A-B permeability (Caco-2, pH 6.5/7.4); conditions: low solubility, high permeability
[10] = B-A permeability (Caco-2, pH 6.5/7.4); conditions: human, test conc. 1.0E−05M
[11] = tested on: human rhinovirus 14 (HRV-14); test: microbe, parasite or virus in culture; conditions: Rhinovirus B, HRV14, HeLa
[12] = tested on: influenza A (H1N1, California/07/2009); test: microbe, parasite or virus in culture; conditions: H1N1, MDCK
[13] = tested on: respiratory syncytial virus (RSV) A2; test: microbe, parasite or virus in culture; conditions: human respiratory syncytial virus, MA104
[14] = Example 1 combined with a DHODH inhibitor
[15] = Caco-2, pH 6.5, Percent Recovery 1st
[16] = Caco-2, pH 6.5, Percent Recovery 2nd
[17] = Caco-2, pH 6.5, Percent Recovery Mean
[18] = Caco-2, pH 6.5, Permeability 1st
[19] = Caco-2, pH 6.5, Permeability 2nd
[20] = Caco-2, pH 6.5, Permeability Mean

Compound: C[N+](C)(C)CCOP(=O)([O-])OP(=O)([O-])OC[C@H]1O[C@@H](n2ccc(NO)nc2=O)[C@H](O)[C@@H]1O.[Na+] [Example 1, 2-(((((((2R,3S,4R,5R)-3,4-Dihydroxy-5-(4-(hydroxyamino)-2-oxopyrimidin-1 (2H)-yl)tetrahydrofuran-2-yl)methoxy) (hydroxy)phosphoryl)oxy)oxidophosphoryl)oxy)-N,N,N-trimethylethan-1-aminium mono sodium salt]
- EC50 (SARS-COV-2): < 10 µM
- combinatorial antiviral effect (SARS-COV-2 d6-YFP): synergistic
- RSV Virus Titers (RSV A2; Conc. 0.0079 μM): 4.5 CCID50/mL (Log10)
- RSV Virus Titers (RSV A2; Conc. 0.025 μM): 4.0 CCID50/mL (Log10)
- RSV Virus Titers (RSV A2; Conc. 0.079 μM): 3.5 CCID50/mL (Log10)
- RSV Virus Titers (RSV A2; Conc. 0.25 μM): 4.0 CCID50/mL (Log10)
- RSV Virus Titers (RSV A2; Conc. 0.79 μM): 4.0 CCID50/mL (Log10)
- RSV Virus Titers (RSV A2; Conc. 2.5 μM): 3.5 CCID50/mL (Log10)
- RSV Virus Titers (RSV A2; Conc. 7.9 μM): 3.5 CCID50/mL (Log10)
- RSV Virus Titers (RSV A2; Conc. 25 μM): 3.5 CCID50/mL (Log10)
- combination behavior on RSV (RSV A2; [14]): synergistic
- HRV-14 Virus Titers (HRV-14; Conc. 0.0079 μM): 6.7 CCID50/mL (Log10)
- HRV-14 Virus Titers (HRV-14; Conc. 0.025 μM): 6.7 CCID50/mL (Log10)
- HRV-14 Virus Titers (HRV-14; Conc. 0.079 μM): 6.7 CCID50/mL (Log10)
- HRV-14 Virus Titers (HRV-14; Conc. 0.25 μM): 7.0 CCID50/mL (Log10)
- HRV-14 Virus Titers (HRV-14; Conc. 0.79 μM): 6.7 CCID50/mL (Log10)
- HRV-14 Virus Titers (HRV-14; Conc. 2.5 μM): 6.0 CCID50/mL (Log10)
- HRV-14 Virus Titers (HRV-14; Conc. 7.9 μM): 4.7 CCID50/mL (Log10)
- HRV-14 Virus Titers (HRV-14; Conc. 25 μM): 3.5 CCID50/mL (Log10)
- combination behavior on HRV-14 (HRV-14; [14]): synergistic
- solubility (physchem [1]; Solubility 1st): 14.2 µM
- solubility (physchem [1]; Solubility 2nd): 14.4 µM
- solubility (physchem [1]; Solubility Mean): 14.3 µM
- solubility (physchem [2]; Solubility 1st): 13.9 µM
- solubility (physchem [2]; Solubility 2nd): 18.3 µM
- solubility (physchem [2]; Solubility Mean): 16.1 µM
- solubility (physchem [3]; Solubility 1st): < 1 µM
- solubility (physchem [3]; Solubility 2nd): < 1 µM
- solubility (physchem [3]; Solubility Mean): < 1 µM
- logD (physchem [4]): 0.52
- CC50 (in vitro [5]): > 100 µM
- CC50 (in vitro [6]): > 25 µM
- CC50 (in vitro [7]): 25 µM
- CC50 (in vitro [8]): 2.4 µM
- recovery at 10 µM [9, 15]: 121%
- recovery at 10 µM [9, 16]: 115%
- recovery at 10 µM [9, 17]: 118%
- Papp at 10 µM [9, 18]: 36.1 ×10⁻⁶ cm/s
- Papp at 10 µM [9, 19]: 30.7 ×10⁻⁶ cm/s
- Papp at 10 µM [9, 20]: 33.4 ×10⁻⁶ cm/s
- biopharmaceutics classification (Caco-2): Class Il
- recovery at 10 µM [10, 15]: 91%
- recovery at 10 µM [10, 16]: 83%
- recovery at 10 µM [10, 17]: 87%
- Papp at 10 µM [10, 18]: 26.1 ×10⁻⁶ cm/s
- Papp at 10 µM [10, 19]: 21.2 ×10⁻⁶ cm/s
- Papp at 10 µM [10, 20]: 23.7 ×10⁻⁶ cm/s
- EC50 [11]: 4.7 µM
- EC50 [12]: 4.8 µM
- EC50 [13]: 1.1 µM
